Data taken from ChEMBL document CHEMBL6153137, “Design, Synthesis, and Biological Evaluation of Novel Orally Available Covalent CDK12/13 Dual Inhibitors for the Treatment of Tumors” (J Med Chem, 2025).
Calls of active or inactive are those of the source. The calls are words filed in the database; no cut-off is given here.

Assays:
[1] = Ratio of drug level in tumor to plasma in Balb/c mouse xenografted with human MV4-11 cells at 30 mg/kg, po administered via gavage and measured after 2 hrs; format: ADME, organism-based
[2] = AUC(0 to t) in male Sprague-Dawley rat at 10 mg/kg, po administered via gavage and measured on day 1; format: ADME, organism-based; settings: in vivo, 24 h, time 1 day
[3] = target: CDK6/cyclin D1 (Homo sapiens) (UniProt P24385+Q00534); assay: Inhibition of human recombinant N-terminal GST-tagged CDK6/N-terminal GST-tagged and C-terminal 6X His-tagged Cyclin D1 expressed in HEP Sf9 cells using ATP as substrate at 2 uM measured after 60 mins by ADP-Glo reagent based luminescence analysis
[4] = Half life in Sprague-Dawley rat at 50 mg/kg, po measured for 24 hrs by LC-MS/MS analysis; format: ADME, organism-based; settings: in vivo
[5] = Toxicity against male Sprague-Dawley rat assessed as decrease in thymus weight at 10 to 40 mg/kg, po administered once daily via gavage for 28 days and measured on day 29; format: organism-based; settings: in vivo, 696 h, dose 10-40 mg/kg, time 29 day
[6] = Toxicity against female Sprague-Dawley rat assessed as decrease in lymphocytes content at 7.5 to 30 mg/kg, po administered once daily via gavage for 28 days and measured on day 29; format: organism-based; settings: in vivo, 696 h, dose 7.5-30 mg/kg, time 29 day
[7] = target: CDK9/cyclin T1 (Homo sapiens) (UniProt O60563+P50750); assay: Inhibition of human recombinant N-terminal GST-tagged CDK9/N-terminal GST-tagged and C-terminal 8X His-tagged Cyclin T1 expressed in HEP Sf9 cells using ATP as substrate at 2 uM measured after 60 mins by ADP-Glo reagent based luminescence assay
[8] = AUC (0 to infinity) in Sprague-Dawley rat at 50 mg/kg, po by LC-MS/MS analysis; format: ADME, organism-based; settings: in vivo
[9] = target: Cyclin-dependent kinase 9 (Homo sapiens) (UniProt P50750); assay: Inhibition of CDK9 in human SUM149PT cells assessed as reduction in level of phosphorylation of Ser7 on RNA Pol II CTD at 500 nM incubated for 12 hrs followed by drug wash-out and measured after 72 hrs by western blot analysis; format: cell-based
Sequence of Cyclin-dependent kinase 9 (Homo sapiens) (P50750 whole entry): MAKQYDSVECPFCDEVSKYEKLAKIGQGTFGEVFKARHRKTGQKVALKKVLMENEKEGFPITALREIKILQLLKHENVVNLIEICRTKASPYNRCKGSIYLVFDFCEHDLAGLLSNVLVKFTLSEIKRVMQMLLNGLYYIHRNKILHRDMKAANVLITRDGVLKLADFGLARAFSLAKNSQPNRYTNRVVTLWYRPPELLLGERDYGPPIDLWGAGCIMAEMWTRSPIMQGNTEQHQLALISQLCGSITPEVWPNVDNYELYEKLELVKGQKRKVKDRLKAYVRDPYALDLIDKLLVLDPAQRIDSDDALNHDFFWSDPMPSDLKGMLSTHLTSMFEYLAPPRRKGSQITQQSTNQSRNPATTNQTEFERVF

[10] = Protein binding in human plasma assessed as free fraction at 400 uM incubated for 4 hrs by equilibrium dialysis method based LC-MS/MS analysis; format: ADME, cell-free
[11] = Half life in male Sprague-Dawley rat at 20 mg/kg, po administered via gavage and measured on day 1; format: ADME, organism-based; settings: in vivo
[12] = Cmax in Sprague-Dawley rat at 50 mg/kg, po measured for 24 hrs by LC-MS/MS analysis; format: ADME, organism-based; settings: in vivo
[13] = target: Mitogen-activated protein kinase 8 (Homo sapiens) (UniProt P45983); assay: Inhibition of JNK1 (unknown origin) at 5 uM by DiscoverX KinomeScan ScanMAX analysis
Sequence of Mitogen-activated protein kinase 8 (Homo sapiens) (P45983 whole entry): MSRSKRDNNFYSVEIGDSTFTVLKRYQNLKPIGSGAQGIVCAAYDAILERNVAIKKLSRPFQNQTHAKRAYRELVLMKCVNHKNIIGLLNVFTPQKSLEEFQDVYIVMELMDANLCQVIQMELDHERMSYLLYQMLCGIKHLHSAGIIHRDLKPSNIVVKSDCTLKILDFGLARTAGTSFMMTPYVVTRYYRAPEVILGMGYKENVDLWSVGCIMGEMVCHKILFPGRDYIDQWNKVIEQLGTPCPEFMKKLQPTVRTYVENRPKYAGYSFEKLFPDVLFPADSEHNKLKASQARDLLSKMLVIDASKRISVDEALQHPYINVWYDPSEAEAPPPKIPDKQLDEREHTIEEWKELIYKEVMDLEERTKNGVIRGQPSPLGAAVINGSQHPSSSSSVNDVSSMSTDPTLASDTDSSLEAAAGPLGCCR

[14] = Permeability of the compound in human Caco-2 cells at 2 uM incubated for 2 hrs by LC-MS/MS analysis; format: ADME, cell-based; settings: read-out: permeability
[15] = AUC in Balb/c mouse xenografted with human SUM149PT cells at 60 mg/kg, po administered once daily via gavage; format: ADME, organism-based; settings: in vivo
[16] = target: CDK18/Cyclin Y (Homo sapiens) (UniProt Q07002+Q8ND76); assay: Inhibition of human recombinant N-terminal GST-tagged CDK18/N-terminal GST-tagged Cyclin Y expressed in HEP Sf9 cells using ATP as substrate at 2 uM measured after 60 mins by ADP-Glo reagent based luminescence assay
[17] = Cmax in female Sprague-Dawley rat at 30 mg/kg, po administered via gavage and measured on day 1; format: ADME, organism-based; settings: in vivo, time 1 day
[18] = Toxicity against male Sprague-Dawley rat assessed as perianal contamination at 40 mg/kg, po administered once daily via gavage for 28 days; format: organism-based; settings: in vivo, 672 h, time 28 day
[19] = Half life in female Sprague-Dawley rat at 7.5 mg/kg, po administered once daily via gavage for 28 days; format: ADME, organism-based; settings: in vivo, time 28 day
[20] = Toxicity against female Sprague-Dawley rat assessed as effect on AST level in blood at 7.5 to 30 mg/kg, po administered once daily via gavage for 28 days and measured on day 29; format: organism-based; settings: in vivo, 696 h, dose 7.5-30 mg/kg, time 29 day
[21] = AUC(0 to t) in male Sprague-Dawley rat at 40 mg/kg, po administered once daily via gavage for 28 days; format: ADME, organism-based; settings: in vivo, 672 h, time 28 day
[22] = Toxicity against male Sprague-Dawley rat assessed as effect on blood urea nitrogen level at 10 to 40 mg/kg, po administered once daily via gavage for 28 days and measured on day 29; format: organism-based; settings: in vivo, 696 h, dose 10-40 mg/kg, time 29 day
Cytochrome P450 3A4 = Cytochrome P450 3A4 (Homo sapiens, UniProt P08684); assay: Inhibition of CYP3A4 in human liver microsomes assessed as inhibition of midazolam-1'-hydroxylation incubated for 10 mins in presence of NADPH by LC-MS/MS analysis; format: ADME, Microsome
Sequence of Cytochrome P450 3A4 (P08684 whole entry): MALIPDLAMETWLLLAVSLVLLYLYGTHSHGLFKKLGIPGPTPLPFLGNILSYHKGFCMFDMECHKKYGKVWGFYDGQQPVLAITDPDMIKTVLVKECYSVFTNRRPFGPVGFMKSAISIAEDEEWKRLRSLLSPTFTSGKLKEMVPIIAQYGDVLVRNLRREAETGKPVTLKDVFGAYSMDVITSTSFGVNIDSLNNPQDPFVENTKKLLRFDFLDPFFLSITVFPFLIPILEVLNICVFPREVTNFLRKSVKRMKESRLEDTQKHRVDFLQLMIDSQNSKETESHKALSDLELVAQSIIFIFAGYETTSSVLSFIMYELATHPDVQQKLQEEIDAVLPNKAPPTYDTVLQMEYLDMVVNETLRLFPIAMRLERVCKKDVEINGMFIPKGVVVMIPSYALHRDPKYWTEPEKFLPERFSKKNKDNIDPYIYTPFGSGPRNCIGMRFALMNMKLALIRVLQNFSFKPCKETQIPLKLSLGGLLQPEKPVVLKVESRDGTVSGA

[23] = Half life in male Sprague-Dawley rat at 40 mg/kg, po administered once daily via gavage for 28 days; format: ADME, organism-based; settings: in vivo, time 28 day
[24] = Volume of distribution at steady state in Sprague-Dawley rat at 1 mg/kg, iv measured for 24 hrs by LC-MS/MS analysis; format: ADME, organism-based; settings: in vivo, read-out: Vdss
[25] = target: Mitogen-activated protein kinase 10 (Homo sapiens) (UniProt P53779); assay: Inhibition of JNK3 (unknown origin) at 5 uM by DiscoverX KinomeScan ScanMAX analysis
Sequence of Mitogen-activated protein kinase 10 (Homo sapiens) (P53779 whole entry): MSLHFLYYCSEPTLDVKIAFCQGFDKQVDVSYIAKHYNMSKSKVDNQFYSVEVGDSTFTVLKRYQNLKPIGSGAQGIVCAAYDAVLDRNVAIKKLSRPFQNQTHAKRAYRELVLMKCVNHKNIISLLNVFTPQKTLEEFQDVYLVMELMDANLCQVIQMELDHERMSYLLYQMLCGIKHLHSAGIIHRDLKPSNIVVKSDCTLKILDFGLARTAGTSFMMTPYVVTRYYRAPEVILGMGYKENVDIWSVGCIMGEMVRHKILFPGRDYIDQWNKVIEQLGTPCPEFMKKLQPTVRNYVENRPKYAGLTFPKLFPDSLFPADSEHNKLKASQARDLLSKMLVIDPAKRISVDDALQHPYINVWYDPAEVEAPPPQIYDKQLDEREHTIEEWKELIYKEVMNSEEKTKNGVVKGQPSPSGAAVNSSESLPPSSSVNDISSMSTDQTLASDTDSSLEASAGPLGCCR

[26] = AUC(0 to t) in male Sprague-Dawley rat at 20 mg/kg, po administered via gavage and measured on day 1; format: ADME, organism-based; settings: in vivo, 24 h, time 1 day
NCI-H508 = assay: Antiproliferative activity against human NCI-H508 cells assessed as reduction in cell viability incubated for 7 days by CellTiter-Glo reagent based luminescence analysis; format: functional; settings: NCI-H508, 168 h
[27] = AUC(0 to t) in female Sprague-Dawley rat at 15 mg/kg, po administered via gavage and measured on day 1; format: ADME, organism-based; settings: in vivo, 24 h, time 1 day
[28] = target: Cyclin-dependent kinase 12/13 (Homo sapiens) (UniProt Q14004+Q9NYV4); assay: Inhibition of CDK12/13 in human SUM149PT cells assessed as reduction in level of phosphorylation of Ser2 on RNA Pol II CTD incubated for 24 hrs by western blot analysis; format: cell-based; settings: dose 250-1000 nM
SUM149PT = assay: Antitumor activity against human SUM149PT cells xenografted in Balb/c mouse assessed as inhibition of tumor growth at 30 mg/kg, po administered once daily via gavage and measured on day 20; format: functional; settings: 480 h, time 20 day, read-out: TGI
[29] = target: Cyclin-dependent kinase 13/Cyclin-K (Homo sapiens, UniProt Q14004); assay: Inhibition of CDK13/Cyclin K (unknown origin) using pS7-CTD peptide and ATP as substrate incubated for 120 mins by ADP-Glo reagent based luminescence analysis; format: protein-complex assay
Sequence of Cyclin-dependent kinase 13/Cyclin-K (Q14004 whole entry): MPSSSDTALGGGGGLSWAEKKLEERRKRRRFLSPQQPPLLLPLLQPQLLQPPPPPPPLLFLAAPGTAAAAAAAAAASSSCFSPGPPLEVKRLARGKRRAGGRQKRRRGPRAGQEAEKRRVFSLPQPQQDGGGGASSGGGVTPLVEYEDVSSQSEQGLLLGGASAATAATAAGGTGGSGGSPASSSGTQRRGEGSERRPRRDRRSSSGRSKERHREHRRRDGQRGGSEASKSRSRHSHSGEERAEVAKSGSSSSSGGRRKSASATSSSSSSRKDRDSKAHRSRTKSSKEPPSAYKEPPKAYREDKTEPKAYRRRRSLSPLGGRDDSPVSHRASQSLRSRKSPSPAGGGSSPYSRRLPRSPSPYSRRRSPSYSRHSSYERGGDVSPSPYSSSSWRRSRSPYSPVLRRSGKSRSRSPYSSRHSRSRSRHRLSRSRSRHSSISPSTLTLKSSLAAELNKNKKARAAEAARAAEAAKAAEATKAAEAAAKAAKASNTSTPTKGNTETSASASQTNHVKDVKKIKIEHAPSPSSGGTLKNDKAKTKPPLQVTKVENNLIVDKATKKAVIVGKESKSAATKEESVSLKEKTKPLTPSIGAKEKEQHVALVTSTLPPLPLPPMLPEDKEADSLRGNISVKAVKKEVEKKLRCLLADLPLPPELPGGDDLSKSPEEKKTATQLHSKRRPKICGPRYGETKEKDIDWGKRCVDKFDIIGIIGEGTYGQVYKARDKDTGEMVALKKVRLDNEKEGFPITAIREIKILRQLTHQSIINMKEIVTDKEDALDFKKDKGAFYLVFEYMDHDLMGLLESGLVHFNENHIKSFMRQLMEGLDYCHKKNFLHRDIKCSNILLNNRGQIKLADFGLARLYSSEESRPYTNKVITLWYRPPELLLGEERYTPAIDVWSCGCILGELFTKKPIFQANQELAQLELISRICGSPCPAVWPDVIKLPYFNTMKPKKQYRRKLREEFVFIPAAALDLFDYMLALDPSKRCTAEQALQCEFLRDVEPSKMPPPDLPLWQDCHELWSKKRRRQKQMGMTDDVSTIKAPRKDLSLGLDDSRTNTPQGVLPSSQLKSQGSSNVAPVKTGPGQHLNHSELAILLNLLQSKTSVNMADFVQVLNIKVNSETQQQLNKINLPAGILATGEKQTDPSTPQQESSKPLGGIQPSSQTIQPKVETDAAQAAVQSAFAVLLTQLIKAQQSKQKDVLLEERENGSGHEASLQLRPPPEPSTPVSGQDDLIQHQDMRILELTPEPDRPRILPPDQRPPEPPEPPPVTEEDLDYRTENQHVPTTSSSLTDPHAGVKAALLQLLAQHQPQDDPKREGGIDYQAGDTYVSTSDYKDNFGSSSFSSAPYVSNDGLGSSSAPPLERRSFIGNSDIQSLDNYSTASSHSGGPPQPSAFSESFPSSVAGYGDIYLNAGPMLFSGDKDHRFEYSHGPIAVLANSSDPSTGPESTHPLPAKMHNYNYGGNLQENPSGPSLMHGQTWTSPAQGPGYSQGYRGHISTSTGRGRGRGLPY
Sequence of Cyclin-dependent kinase 13/Cyclin-K (O75909 whole entry, further chain): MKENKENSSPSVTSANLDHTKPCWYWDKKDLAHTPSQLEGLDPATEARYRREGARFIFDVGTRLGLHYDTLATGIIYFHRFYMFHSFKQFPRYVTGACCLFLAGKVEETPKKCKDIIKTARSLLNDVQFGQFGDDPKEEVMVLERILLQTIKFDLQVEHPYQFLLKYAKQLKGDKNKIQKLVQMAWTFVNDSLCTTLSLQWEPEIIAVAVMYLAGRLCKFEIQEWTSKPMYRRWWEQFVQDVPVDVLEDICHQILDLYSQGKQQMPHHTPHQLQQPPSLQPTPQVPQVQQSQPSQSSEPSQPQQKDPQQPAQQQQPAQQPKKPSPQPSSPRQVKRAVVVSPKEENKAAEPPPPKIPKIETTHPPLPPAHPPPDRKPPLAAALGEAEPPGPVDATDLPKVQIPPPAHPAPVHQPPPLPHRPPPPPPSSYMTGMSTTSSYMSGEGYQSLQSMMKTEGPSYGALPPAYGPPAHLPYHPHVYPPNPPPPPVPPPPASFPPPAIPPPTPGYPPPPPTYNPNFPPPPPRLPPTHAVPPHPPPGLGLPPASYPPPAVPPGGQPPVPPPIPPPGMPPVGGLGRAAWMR

SW-403 = assay: Antiproliferative activity against human SW403 cells assessed as reduction in cell viability incubated for 7 days by CellTiter-Glo reagent based luminescence analysis; format: functional; settings: SW-403, 168 h
[30] = Ratio of drug level in tumor to plasma in Balb/c mouse xenografted with human SUM149PT cells at 60 mg/kg, po administered via gavage and measured after 2 hrs; format: ADME, organism-based

Question: What does the source list for C=CC(=O)N1CCc2c(ncnc2N2CC[C@@H](Nc3ncc(Cl)c(OC)n3)C2)C1?
Answer: Kp at 2 h [1]: 0.46; AUCt [2]: 978 ng·h/mL; inhibition [3]: 56%; half-life [4]: 6.79 h; Activity [5]: Toxic; Activity [6]: Toxic; inhibition [7]: 75%; AUC(0-inf) [8]: 6690 ng·h/mL; inhibition [9]: inactive; fraction unbound at 4 h, 400 µM [10]: 0.127; half-life [11]: 4.1 h; Cmax [12]: 1900 ng/mL; inhibition [13]: Active; Papp at 2 h, 2 µM [14]: 4.6 ×10⁻⁶ cm/s; AUC [15]: 4620 ng·h/mL; inhibition [16]: 68%; Cmax [17]: 2200 ng/mL; Activity [18]: Toxic; half-life [19]: 2 h; Activity [20]: Non-toxic; AUCt [21]: 6070 ng·h/mL; Activity [22]: Non-toxic; IC50 (Cytochrome P450 3A4): > 50 µM; half-life [23]: 6.9 h; Vd [24]: 0.72 L/kg; inhibition [25]: Active; AUCt [26]: 2550 ng·h/mL; IC50 (NCI-H508): 0.087 µM; AUCt [27]: 3000 ng·h/mL; inhibition [28]: Dose-dependent-effect; inhibition in vivo at 30 mg/kg (SUM149PT): 101%; IC50 [29]: 0.0794 µM; IC50 (SW-403): 0.135 µM; Kp at 2 h [30]: 0.42
